Experimental findings from ChEMBL document CHEMBL3286219, “NF-κB inhibitory activity of polyoxygenated steroids from the Vietnamese soft coral Sarcophyton pauciplicatum” (Bioorg Med Chem Lett, 2014) are described below.

Assay type in all cases: cell-based
For data set [1], the target named is Nuclear factor NF-kappa-B complex (Homo sapiens, UniProt P19838+Q00653+Q04206). Briefly: Inhibition of NF-kappaB activation in human HaCaT cells assessed as inhibition of TNFalpha/IFNgamma-induced transcriptional activity after 24 hrs by Renilla luciferase assay.
Data set [2] relates to HaCaT. As to the kind of experiment: Cytotoxicity against human HaCaT cells at 5 to 20 uM after 24 hrs by MTS assay. (Tetrazolium assays rely on reduction of a dye to a coloured formazan, in cell work by metabolically active cells.)
Data set [3] has as its target T1, Nuclear factor NF-kappa-B complex (Homo sapiens) (UniProt Q00653+P19838+Q04206). Briefly: Inhibition of NF-kappaB activation in human HaCaT cells assessed as inhibition of TNFalpha/IFNgamma-induced ICAM-1 mRNA expression after 1 hr by RT-PCR.
Data set [4] addresses T1, Nuclear factor NF-kappa-B complex (Homo sapiens). As to the kind of experiment: Inhibition of NF-kappaB activation in human HaCaT cells assessed as inhibition of TNFalpha/IFNgamma-induced COX2 mRNA expression after 1 hr by RT-PCR.
The target is the same in data set [5]. As to the kind of experiment: Inhibition of NF-kappaB activation in human HaCaT cells assessed as inhibition of TNFalpha/IFNgamma-induced iNOS mRNA expression after 1 hr by RT-PCR.
Data set [6] has the same target. Briefly: Inhibition of NF-kappaB activation in human HaCaT cells assessed as inhibition of TNFalpha/IFNgamma-induced transcriptional activity at 50 uM after 24 hrs by Renilla luciferase assay.

Calls of active or inactive are those of the source. The calls are words filed in the database; no cut-off is given here.

The EC50 is the concentration at which the effect is half-maximal.

T1 sequence (P19838 whole entry, looked up): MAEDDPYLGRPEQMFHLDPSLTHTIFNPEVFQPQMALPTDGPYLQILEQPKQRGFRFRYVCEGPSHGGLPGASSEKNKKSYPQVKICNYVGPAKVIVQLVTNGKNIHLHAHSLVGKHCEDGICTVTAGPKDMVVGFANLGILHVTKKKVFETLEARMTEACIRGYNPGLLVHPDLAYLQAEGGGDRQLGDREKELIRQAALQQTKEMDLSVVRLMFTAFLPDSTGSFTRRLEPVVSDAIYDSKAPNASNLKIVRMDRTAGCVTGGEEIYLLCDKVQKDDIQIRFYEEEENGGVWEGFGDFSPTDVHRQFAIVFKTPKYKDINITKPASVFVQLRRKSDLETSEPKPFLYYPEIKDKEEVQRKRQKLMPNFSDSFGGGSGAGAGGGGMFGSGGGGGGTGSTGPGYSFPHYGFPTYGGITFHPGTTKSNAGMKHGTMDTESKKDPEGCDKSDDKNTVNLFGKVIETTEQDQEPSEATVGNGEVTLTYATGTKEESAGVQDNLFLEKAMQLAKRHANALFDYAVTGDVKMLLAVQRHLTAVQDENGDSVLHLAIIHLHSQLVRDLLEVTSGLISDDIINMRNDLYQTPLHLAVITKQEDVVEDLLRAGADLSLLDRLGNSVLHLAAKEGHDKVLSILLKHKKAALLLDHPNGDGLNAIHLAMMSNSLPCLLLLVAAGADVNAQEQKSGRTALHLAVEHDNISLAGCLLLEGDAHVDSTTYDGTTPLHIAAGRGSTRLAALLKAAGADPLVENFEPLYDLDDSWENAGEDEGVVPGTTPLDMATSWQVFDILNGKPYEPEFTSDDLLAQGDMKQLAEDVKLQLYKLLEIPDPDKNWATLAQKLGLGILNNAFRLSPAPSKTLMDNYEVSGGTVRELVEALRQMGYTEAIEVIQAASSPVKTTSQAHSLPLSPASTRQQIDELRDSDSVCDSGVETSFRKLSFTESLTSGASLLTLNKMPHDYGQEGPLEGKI
T1 sequence (Q00653 whole entry, looked up): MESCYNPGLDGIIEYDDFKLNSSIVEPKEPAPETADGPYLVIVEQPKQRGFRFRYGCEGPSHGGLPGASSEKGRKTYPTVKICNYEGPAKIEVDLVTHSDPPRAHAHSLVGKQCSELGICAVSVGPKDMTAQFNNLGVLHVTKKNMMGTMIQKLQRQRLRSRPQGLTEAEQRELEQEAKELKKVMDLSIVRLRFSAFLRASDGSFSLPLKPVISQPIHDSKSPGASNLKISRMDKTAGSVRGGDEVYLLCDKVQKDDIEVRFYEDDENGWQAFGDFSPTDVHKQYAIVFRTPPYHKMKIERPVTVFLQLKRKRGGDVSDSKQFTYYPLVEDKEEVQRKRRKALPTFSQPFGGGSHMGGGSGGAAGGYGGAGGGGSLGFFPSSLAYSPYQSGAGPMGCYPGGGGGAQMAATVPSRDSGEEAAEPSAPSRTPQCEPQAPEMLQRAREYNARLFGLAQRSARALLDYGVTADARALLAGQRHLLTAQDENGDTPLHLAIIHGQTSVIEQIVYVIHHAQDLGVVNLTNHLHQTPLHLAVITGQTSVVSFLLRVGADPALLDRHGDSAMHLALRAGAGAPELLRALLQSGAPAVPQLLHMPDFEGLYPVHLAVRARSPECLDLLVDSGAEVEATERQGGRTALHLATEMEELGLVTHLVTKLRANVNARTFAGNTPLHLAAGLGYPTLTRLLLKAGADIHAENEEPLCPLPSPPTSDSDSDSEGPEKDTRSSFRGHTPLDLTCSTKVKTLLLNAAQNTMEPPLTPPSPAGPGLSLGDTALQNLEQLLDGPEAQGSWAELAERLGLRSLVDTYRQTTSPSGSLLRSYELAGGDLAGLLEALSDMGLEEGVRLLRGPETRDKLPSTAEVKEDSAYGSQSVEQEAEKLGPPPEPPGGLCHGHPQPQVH
T1 sequence (Q04206 whole entry, looked up): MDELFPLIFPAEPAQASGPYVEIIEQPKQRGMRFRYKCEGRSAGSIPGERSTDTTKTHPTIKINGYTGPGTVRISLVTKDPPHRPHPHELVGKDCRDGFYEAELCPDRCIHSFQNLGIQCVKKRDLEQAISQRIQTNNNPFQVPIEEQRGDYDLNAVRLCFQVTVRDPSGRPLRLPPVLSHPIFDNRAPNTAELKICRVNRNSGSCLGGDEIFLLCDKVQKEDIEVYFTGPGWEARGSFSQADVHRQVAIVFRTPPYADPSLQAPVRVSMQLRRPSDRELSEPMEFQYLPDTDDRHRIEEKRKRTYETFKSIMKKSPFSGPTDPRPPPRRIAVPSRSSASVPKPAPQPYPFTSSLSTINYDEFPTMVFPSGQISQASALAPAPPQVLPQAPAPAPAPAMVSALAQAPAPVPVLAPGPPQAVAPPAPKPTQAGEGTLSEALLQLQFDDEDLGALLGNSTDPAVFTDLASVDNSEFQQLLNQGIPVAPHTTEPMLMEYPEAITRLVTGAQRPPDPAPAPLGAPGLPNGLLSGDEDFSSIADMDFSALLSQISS
Nuclear factor NF-kappa-B complex, sequence (P19838 1-433 limits assumed): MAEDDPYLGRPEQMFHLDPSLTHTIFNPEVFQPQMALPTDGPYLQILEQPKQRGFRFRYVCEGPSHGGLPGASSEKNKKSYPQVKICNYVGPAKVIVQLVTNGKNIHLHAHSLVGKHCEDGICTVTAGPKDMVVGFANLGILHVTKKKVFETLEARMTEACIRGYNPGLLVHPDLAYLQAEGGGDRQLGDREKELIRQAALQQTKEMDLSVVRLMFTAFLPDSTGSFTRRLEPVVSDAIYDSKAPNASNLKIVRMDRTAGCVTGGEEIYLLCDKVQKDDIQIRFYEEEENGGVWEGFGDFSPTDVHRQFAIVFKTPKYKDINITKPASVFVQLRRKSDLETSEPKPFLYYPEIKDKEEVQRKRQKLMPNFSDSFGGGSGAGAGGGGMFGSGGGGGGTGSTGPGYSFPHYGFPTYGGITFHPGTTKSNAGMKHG
Nuclear factor NF-kappa-B complex, sequence (Q00653 1-454 limits assumed): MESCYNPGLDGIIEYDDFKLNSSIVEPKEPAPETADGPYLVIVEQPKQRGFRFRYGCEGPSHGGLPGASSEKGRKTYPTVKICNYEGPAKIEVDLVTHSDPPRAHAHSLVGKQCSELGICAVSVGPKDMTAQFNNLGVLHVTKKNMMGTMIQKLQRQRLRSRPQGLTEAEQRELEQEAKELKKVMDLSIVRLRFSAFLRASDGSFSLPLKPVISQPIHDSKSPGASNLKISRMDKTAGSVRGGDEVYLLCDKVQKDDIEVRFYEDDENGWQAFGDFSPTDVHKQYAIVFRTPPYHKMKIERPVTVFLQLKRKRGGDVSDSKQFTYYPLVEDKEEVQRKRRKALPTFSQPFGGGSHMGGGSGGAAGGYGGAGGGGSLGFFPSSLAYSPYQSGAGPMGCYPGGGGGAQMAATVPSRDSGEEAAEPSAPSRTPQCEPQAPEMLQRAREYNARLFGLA
Nuclear factor NF-kappa-B complex, sequence (Q04206 whole entry): as the sequence (Q04206 whole entry, looked up) above

For the molecule `CC(=O)OC(C)(C)[C@@H](C)/C=C/[C@@H](C)[C@H]1CC[C@H]2[C@@H]3C[C@@H](O)[C@@]4(O)C[C@@H](O)C[C@@H](O)[C@]4(C)[C@H]3CC[C@]12C`, the EC50 in data set [1] came to 8.27 µM. For the same molecule, in data set [2], the Activity entry is recorded as “Non-toxic”. Further, the inhibition result in data set [3], in data set [4] and in data set [5] was “Dose-dependent effect” each time.
As for `C=C(C)[C@@H](C)CC[C@@H](C)[C@H]1CC[C@H]2[C@@H]3C[C@@H](O)[C@@]4(O)C[C@@H](O)C[C@@H](O)[C@]4(C)[C@H]3CC[C@]12C`, the Activity entry in data set [2] is on record as “Non-toxic”. For the same molecule, in data set [6], the inhibition result was “Active”.
As to `CC(=O)OC(C)(C)[C@@H](C)CC[C@@H](C)[C@H]1CC[C@H]2[C@@H]3C[C@@H](O)[C@@]4(O)C[C@@H](O)C[C@@H](O)[C@]4(C)[C@H]3CC[C@]12C`, the EC50 in data set [1] stood at 26.1 µM. In data set [2], the Activity entry is recorded as “Non-toxic”.
